Values of other authors as cited in patent US20250161397A1, “PLANT BASED FORMULATION FOR FAST PAIN RELIEF AND PREPARATION METHOD” (ARJUNA NATURAL PRIVATE LIMITED, priority 2022, published 2025).

Assays:
5-LOX = biological target: T1, 5-LOX (Homo sapiens, UniProt P09917); details: literature
T1 sequence (P09917 1-674): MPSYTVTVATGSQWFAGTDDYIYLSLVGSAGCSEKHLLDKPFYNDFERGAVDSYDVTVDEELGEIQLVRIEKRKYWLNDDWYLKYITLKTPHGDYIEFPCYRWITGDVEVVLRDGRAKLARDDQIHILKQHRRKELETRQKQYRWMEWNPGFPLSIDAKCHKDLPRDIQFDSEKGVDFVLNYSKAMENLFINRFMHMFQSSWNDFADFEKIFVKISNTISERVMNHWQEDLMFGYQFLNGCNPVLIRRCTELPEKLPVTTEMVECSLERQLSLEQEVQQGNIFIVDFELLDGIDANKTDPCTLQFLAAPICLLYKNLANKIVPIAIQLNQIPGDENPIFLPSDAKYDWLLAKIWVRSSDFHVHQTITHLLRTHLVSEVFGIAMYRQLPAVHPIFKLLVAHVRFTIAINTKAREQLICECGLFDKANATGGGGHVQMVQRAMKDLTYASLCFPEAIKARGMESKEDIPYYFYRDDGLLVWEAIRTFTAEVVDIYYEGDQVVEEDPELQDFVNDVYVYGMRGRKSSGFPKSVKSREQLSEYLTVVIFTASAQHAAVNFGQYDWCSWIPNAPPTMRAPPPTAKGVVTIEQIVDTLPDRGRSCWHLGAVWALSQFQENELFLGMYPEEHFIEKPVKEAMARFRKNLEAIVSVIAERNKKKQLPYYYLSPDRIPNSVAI

COX-2 [1] = biological target: T2, COX-2 (Homo sapiens, UniProt P35354); details: Siemoneit 2008
T2 sequence (P35354 18-604): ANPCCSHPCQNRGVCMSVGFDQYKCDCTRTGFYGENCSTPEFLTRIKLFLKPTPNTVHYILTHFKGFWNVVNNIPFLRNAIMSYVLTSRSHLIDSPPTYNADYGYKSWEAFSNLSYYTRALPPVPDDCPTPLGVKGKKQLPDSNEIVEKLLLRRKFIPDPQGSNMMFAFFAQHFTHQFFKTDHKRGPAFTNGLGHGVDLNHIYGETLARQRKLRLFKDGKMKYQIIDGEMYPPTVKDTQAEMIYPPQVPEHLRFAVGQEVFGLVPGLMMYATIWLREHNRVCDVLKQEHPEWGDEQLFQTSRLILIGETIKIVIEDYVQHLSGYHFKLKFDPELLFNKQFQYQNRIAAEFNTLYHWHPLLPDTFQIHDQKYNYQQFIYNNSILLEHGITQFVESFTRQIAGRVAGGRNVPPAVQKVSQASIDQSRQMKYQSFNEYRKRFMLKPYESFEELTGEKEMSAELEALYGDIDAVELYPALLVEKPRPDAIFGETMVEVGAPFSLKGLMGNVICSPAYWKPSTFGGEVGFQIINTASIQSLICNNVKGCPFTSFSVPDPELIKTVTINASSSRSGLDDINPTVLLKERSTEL

COX-1 [2] = biological target: COX-1 (Homo sapiens, UniProt P23219); details: Siemoneit 2008
COX-1 [3] = details: Goel 2001
12/15 LOX = biological target: T3, 12/15 LOX (Rattus norvegicus, UniProt Q02759); details: in vitro, rat lung cytosolic fraction; Bezáková 2014
T3 construct: from tissue; host or cells: rat lung cytosolic fraction
T3 sequence (Q02759 1-663): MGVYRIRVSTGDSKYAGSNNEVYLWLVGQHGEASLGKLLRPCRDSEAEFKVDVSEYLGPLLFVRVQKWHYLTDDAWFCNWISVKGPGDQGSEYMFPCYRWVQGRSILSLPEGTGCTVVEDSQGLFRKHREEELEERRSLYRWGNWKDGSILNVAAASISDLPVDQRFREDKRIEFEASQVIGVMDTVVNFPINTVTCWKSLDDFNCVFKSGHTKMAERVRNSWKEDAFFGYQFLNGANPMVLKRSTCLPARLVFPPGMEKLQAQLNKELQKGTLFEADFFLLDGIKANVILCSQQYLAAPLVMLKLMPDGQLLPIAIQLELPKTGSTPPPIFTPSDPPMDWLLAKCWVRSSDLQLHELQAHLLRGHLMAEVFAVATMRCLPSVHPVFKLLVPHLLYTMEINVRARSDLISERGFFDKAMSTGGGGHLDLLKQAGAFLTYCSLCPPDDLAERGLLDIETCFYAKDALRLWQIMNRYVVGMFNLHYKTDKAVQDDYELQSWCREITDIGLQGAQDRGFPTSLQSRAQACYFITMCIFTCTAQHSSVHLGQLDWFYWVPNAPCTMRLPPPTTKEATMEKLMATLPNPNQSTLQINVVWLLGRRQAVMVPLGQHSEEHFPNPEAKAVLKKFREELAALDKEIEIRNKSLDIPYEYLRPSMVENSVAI

COX-2 [4] = details: HT-29 human colon cancer cells; Goel 2001

Sequence of COX-1 (Homo sapiens, UniProt P23219) (P23219 24-599): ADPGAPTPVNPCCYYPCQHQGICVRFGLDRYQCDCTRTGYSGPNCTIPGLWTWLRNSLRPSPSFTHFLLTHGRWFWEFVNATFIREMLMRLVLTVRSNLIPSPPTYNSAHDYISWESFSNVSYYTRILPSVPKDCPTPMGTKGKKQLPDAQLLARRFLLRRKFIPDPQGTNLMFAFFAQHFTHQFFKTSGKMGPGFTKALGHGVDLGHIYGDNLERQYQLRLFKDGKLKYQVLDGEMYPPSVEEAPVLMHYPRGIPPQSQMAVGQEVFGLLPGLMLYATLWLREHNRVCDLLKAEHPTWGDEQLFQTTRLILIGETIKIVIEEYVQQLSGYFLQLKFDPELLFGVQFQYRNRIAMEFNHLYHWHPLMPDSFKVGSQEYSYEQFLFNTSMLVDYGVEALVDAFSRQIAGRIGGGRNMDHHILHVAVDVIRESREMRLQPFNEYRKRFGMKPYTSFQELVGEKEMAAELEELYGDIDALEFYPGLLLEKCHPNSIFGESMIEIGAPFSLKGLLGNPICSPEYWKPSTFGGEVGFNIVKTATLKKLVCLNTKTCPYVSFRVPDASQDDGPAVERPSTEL

inhibition of COX-1 (COX-1 [2]) | Structure (SMILES) | inhibition of 5-LOX (5-LOX) | inhibition of COX-2 (COX-2 [1]) | effect on mRNA and protein expression of COX-1 (COX-1 [3]) | inhibition of 12/15 LOX (12/15 LOX) | effect on mRNA and protein expression of COX-2 (COX-2 [4])
reversible inhibition of COX-1 | CC(=O)O[C@@H]1CC[C@@]2(C)[C@@H](CC[C@]3(C)[C@@H]2C(=O)C=C2[C@@H]4[C@@H](C)[C@H](C)CC[C@]4(C)CC[C@]23C)[C@@]1(C)C(=O)O [AKBA, acetyl-11-keto-β-boswellic acid] | good inhibition of 5-LOX | less efficiently inhibited by AKBA as compared to COX-1 | – | – | –
– | COc1cc(/C=C/C(=O)CC(=O)/C=C/c2ccc(O)c(OC)c2)ccc1O [Curcumin, curcumin] | bind to the active site of 5-LOX and inhibit its activity | – | not COX-1 | competitive inhibitor of 12/15 LOX | inhibit the mRNA and protein expression of COX-2
